The subject of one test is Myotonic Dystrophy 1 affected patient fibroblasts (Coriell GM04602; 1600 CTG repeats). As to the kind of experiment: DM1 foci reduction assay (CAG10-Cy3 FISH, average foci per nucleus). It counts as cell-based. Particulars: Homo sapiens, Fibroblast, 48 h, read-out: Foci Reduction in Fibroblast EC50, 48 h (nM). Put shortly: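 Read-out is mean nuclear foci per well from CAG10-Cy3 FISH (5 nM probe, overnight 37 °C) with DAPI nuclei, 4 fields per well at 20×. Compounds ran 48 h in 8-point, 3-fold series topping at 3 μM on 1600-CTG GM04602 fibroblasts, alongside GM07492 wild-type cells.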
On to `CC(C)CN(CCCC[C@H](NC(=O)COCCOCCNC(=O)c1ccc(C(C)(C)C)cc1)C(=O)N[C@@H](CO)C(=O)NCCOCCOCCOCCOCCOCCNC(=O)CCNC(=O)c1nc(NC(=O)c2cc(NC(=O)CCNC(=O)c3nc(NC(=O)CCCNC(=O)c4cc(NC(=O)c5nc(NC(=O)CCNC(=O)c6cc(NC(=O)c7nccn7C)cn6C)cn5C)cn4C)cn3C)cn2C)cn1C)C1CC2CCC1C2` (stereo partly drawn) [Compound 144], for which the EC50 – broadly, the concentration that produces a half-maximal response – was below 100 nM.
With `CCN(CC)CCCC[C@H](NC(=O)CCCCCCCNC(=O)c1ccc(C(C)(C)C)cc1)C(=O)N[C@@H](CO)C(=O)NCCOCCOCCOCCOCCOCCNC(=O)CCNC(=O)c1nc(NC(=O)c2cc(NC(=O)CCNC(=O)c3nc(NC(=O)CCCNC(=O)c4cc(NC(=O)c5nc(NC(=O)CCNC(=O)c6cc(NC(=O)c7nccn7C)cn6C)cn5C)cn4C)cn3C)cn2C)cn1C` [Compound 139], the half-maximal effective concentration (EC50) was below 100 nM.
Take `CCN(CC)CCCC[C@H](NC(=O)CCCCNC(=O)c1cnn(-c2ccc(C(C)(C)C)cc2)c1)C(=O)N[C@@H](CO)C(=O)NCCOCCOCCOCCOCCOCCNC(=O)CCNC(=O)c1nc(NC(=O)c2cc(NC(=O)CCNC(=O)c3nc(NC(=O)CCCNC(=O)c4cc(NC(=O)c5nc(NC(=O)CCNC(=O)c6cc(NC(=O)c7nccn7C)cn6C)cn5C)cn4C)cn3C)cn2C)cn1C` [Compound 151]: the 50% effective concentration (EC50) is above 500 nM.
The same measure, in the same setting: the value for `CCN(CC)CCCC[C@H](NC(=O)[C@H](CC(C)C)NC(=O)[C@H](C)NC(=O)[C@H](Cc1ccccc1)NC(=O)c1ccc(C(C)(C)C)cc1)C(=O)N[C@@H](CO)C(=O)NCCOCCOCCOCCOCCOCC(=O)N[C@H](CCNC(=O)c1cc(NC(=O)c2nc(NC(=O)CCNC(=O)c3cc(NC(=O)c4nccn4C)cn3C)cn2C)cn1C)C(=O)Nc1cn(C)c(C(=O)Nc2cc(C(=O)NCCC(=O)Nc3cn(C)c(C(=O)Nc4cc(C(=O)NCCO)n(C)c4)n3)n(C)c2)n1` [Compound 134] was above 500 nM; that for `CCN(CC)CCCC[C@H](NC(=O)[C@H](CC(C)C)NC(=O)[C@H](C)NC(=O)[C@H](Cc1ccccc1)NC(=O)c1ccc(C(C)(C)C)cc1)C(=O)N[C@@H](CO)C(=O)NCCOCCOCCOCCOCCOCCNC(=O)c1nc(NC(=O)CCNC(=O)c2cc(NC(=O)c3nc(NC(=O)CCNC(=O)c4cc(NC(=O)c5nc(NC(=O)CCNC(=O)c6cccn6C)cn5C)cn4C)cn3C)cn2C)cn1C` [Compound 10] was above 500 nM; that for `CCN(CC)CCCC[C@H](NC(=O)[C@H](CC(C)C)NC(=O)[C@H](C)NC(=O)[C@H](Cc1ccccc1)NC(=O)c1ccccc1C)C(=O)N[C@@H](CO)C(=O)NCCOCCOCCOCCOCCOCCNC(=O)c1cc(NC(=O)c2cc(NC(=O)c3nc(NC(=O)c4cc(NC(=O)[C@@H](N)CCNC(=O)c5nc(NC(=O)CCNC(=O)c6cc(NC(=O)c7nccn7C)cn6C)cn5C)cn4C)cn3C)cn2C)cn1C` [Compound 89] was above 500 nM.
Same read-out and setting: the value for `CCN(CC)CCCC[C@H](NC(=O)[C@H](CC(C)C)NC(=O)[C@H](C)NC(=O)[C@H](Cc1ccccc1)NC(=O)c1ccc(C(C)(C)C)cc1)C(=O)N[C@@H](CO)C(=O)NCCOCCOCCOCCOCCOCCNC(=O)c1nc(NC(=O)c2cc(NC(=O)c3cc(NC(=O)c4nc(NC(=O)CCCNC(=O)c5cc(NC(=O)c6nc(NC(=O)CCNC(=O)c7cc(NC(=O)c8nccn8C)cn7C)cn6C)cn5C)cn4C)cn3C)cn2C)cn1C` [Compound 105] was above 500 nM.
On the same count and under the same terms, the figure for `CCN(CC)CCCC[C@H](NC(=O)[C@H](CC(C)C)NC(=O)[C@H](C)NC(=O)[C@H](Cc1ccccc1)NC(=O)c1ccc(C(C)(C)C)cc1)C(=O)N[C@@H](CO)C(=O)NCCOCCOCCNC(=O)c1cc(NC(=O)c2cc(NC(=O)c3nc(NC(=O)c4cc(NC(=O)[C@@H](N)CCNC(=O)c5nc(NC(=O)c6cc(NC(=O)c7cc(NC(=O)c8nccn8C)cn7C)cn6C)cn5C)cn4C)cn3C)cn2C)cn1C` [Compound 78] is above 500 nM; for `CCN(CC)CCCC[C@H](NC(=O)[C@H](CC(C)C)NC(=O)[C@H](C)NC(=O)[C@H](Cc1ccccc1)NC(=O)c1ccc(C(C)(C)C)cc1)C(=O)N[C@@H](CO)C(=O)NCCOCCOCCOCCOCCOCCNC(=O)c1cc(NC(=O)c2nc(NC(=O)CCNC(=O)c3cc(NC(=O)c4nc(NC(=O)[C@H](CCNC(=O)c5cc(NC(=O)c6nc(NC(=O)CCNC(=O)c7cc(NC(=O)c8nccn8C)cn7C)cn6C)cn5C)NC(C)=O)cn4C)cn3C)cn2C)cn1C` [Compound 132] it is below 100 nM; for `CCCNC(=O)c1cc(NC(=O)c2nc(NC(=O)CCNC(=O)c3cc(NC(=O)c4nc(NC(=O)[C@@H](CCNC(=O)c5cc(NC(=O)c6nc(NC(=O)CCNC(=O)c7cc(NC(=O)c8nccn8C)cn7C)cn6C)cn5C)NC(=O)COCCOCCOCCOCCOCCNC(=O)[C@H](CO)NC(=O)[C@H](CCCCN(CC)CC)NC(=O)[C@H](CC(C)C)NC(=O)[C@H](C)NC(=O)[C@H](Cc5ccccc5)NC(=O)c5ccc(C(C)(C)C)cc5)cn4C)cn3C)cn2C)cn1C` [Compound 133] it is 100 to 500 nM.
Consider `CCN(CC)CCCC[C@H](NC(=O)[C@H](CC(C)C)NC(=O)[C@H](C)NC(=O)[C@H](Cc1ccccc1)NC(=O)c1ccc(C(C)(C)C)cc1)C(=O)N[C@@H](CO)C(=O)N1CCC(C#CC#CC2CCN(CCOCCNC(=O)CCNC(=O)c3nc(NC(=O)c4cc(NC(=O)CCNC(=O)c5nc(NC(=O)CCCNC(=O)c6cc(NC(=O)c7nc(NC(=O)CCNC(=O)c8cc(NC(=O)c9nccn9C)cn8C)cn7C)cn6C)cn5C)cn4C)cn3C)CC2)CC1` [Compound 181], for which the concentration giving a half-maximal response (EC50) was below 100 nM.
Same read-out and setting: the figure for `CCN(CC)CCCC[C@H](NC(=O)[C@H](CC(C)C)NC(=O)[C@H](C)NC(=O)[C@H](Cc1ccccc1)NC(=O)c1ccc(C(C)(C)C)cc1)C(=O)N[C@@H](CO)C(=O)NCCOCCOCCOCCOCCOCCNC(=O)c1nc(NC(=O)CCNC(=O)c2cc(NC(=O)c3nc(NC(=O)[C@H](N)CCNC(=O)c4cc(NC(=O)c5nc(NC(=O)c6cc(NC(=O)c7cccn7C)cn6C)cn5C)cn4C)cn3C)cn2C)cn1C` [Compound 108] is 100 to 500 nM.

Still in this test, the particulars now being: Homo sapiens, Fibroblast; DM1 fibroblasts, 48 h treatment, 8-point dose response, 3 μM top dose; read-out: Foci Reduction in Fibroblast EC50, 48 h.
Consider `Cn1cc(NC(=O)c2nc(NC(=O)CCNC(=O)c3cc(NC(=O)c4nccn4C)cn3C)cn2C)cc1C(=O)NCCCC(=O)Nc1cn(C)c(C(=O)NCCC(=O)Nc2cc(C(=O)Nc3cn(C)c(C(=O)NCCC(=O)NCCOCCOCCOCCOCCOCCOCCn4cc(CC(=O)Nc5ccc(C(=O)Nc6ccccc6N)cc5)nn4)n3)n(C)c2)n1` [Compound 124], for which the concentration giving a half-maximal response (EC50) was above 500 nM.
Still for that read-out and setting: the figure for `COc1cc2nc(N3CCCCC3)nc(NC3CCN(CCOCCOCCOCCOCCOCCNC(=O)CCNC(=O)c4nc(NC(=O)c5cc(NC(=O)CCNC(=O)c6nc(NC(=O)CCCNC(=O)c7cc(NC(=O)c8nc(NC(=O)CCNC(=O)c9cc(NC(=O)c%10nccn%10C)cn9C)cn8C)cn7C)cn6C)cn5C)cn4C)CC3)c2cc1OC` [Compound 192] is above 500 nM.
The same measure, in the same setting: the value for `COc1c(OCCOCCOCCOCCOCCOCCNC(=O)CCNC(=O)c2nc(NC(=O)c3cc(NC(=O)CCNC(=O)c4nc(NC(=O)CCCNC(=O)c5cc(NC(=O)c6nc(NC(=O)CCNC(=O)c7cc(NC(=O)c8nccn8C)cn7C)cn6C)cn5C)cn4C)cn3C)cn2C)cccc1C(=O)N1CCN(C(=O)COc2cccc(OCCNC(=O)CNC(=O)c3ccc(C(C)(C)C)cc3)c2)CC1` [Compound 159] was 100 to 500 nM.

Values taken from patent US20240166693A1, “METHODS AND COMPOUNDS FOR MODULATING MYOTONIC DYSTROPY 1” (Design Therapeutics, Inc., priority 2020, published 2024).
